# Experimental data: PMC8831444 (Cancer Discovery, 2021)
# Where two headings read alike, the source gives them in different places.
# Assays:
# Format in all cases: cell-based
# [1] = target: T1, CDK4 (Homo sapiens, UniProt P11802); assay: palbociclib-based degrader
# Target sequence in this assay (P11802 2-303): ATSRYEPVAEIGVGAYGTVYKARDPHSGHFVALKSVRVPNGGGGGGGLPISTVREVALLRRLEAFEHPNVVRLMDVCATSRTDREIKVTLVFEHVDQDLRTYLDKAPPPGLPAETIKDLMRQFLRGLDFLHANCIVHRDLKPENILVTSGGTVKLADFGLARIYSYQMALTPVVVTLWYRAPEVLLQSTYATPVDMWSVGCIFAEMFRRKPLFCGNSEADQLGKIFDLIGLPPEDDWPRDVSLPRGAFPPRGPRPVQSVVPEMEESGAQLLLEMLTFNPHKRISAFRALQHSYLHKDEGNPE
# [2] = target: T2, CDK6 (Homo sapiens, UniProt Q00534); assay: palbociclib-based degrader
# Target sequence in this assay (Q00534 whole entry): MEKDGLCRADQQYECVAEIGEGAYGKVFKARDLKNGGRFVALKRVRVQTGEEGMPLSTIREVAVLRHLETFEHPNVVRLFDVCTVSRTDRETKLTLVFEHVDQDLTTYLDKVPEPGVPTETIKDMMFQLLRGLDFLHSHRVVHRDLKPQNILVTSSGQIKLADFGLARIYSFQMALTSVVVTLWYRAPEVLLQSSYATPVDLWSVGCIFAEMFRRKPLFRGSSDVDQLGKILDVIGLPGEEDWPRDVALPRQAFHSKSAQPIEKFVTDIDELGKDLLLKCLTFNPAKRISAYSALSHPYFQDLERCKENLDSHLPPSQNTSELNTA
# [3] = target: T1, CDK4; assay: palbociclib-based degrader; remark: listed apart in the source
# Target sequence in this assay (P40337 whole entry): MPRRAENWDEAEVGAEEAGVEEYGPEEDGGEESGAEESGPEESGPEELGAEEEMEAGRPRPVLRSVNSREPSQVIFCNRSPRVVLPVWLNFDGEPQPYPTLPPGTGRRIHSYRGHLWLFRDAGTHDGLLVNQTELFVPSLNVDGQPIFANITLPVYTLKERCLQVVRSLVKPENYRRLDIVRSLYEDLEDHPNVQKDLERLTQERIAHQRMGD
# Target sequence in this assay (P11802 2-303): as the sequence (P11802 2-303) above
# [4] = target: T2, CDK6; assay: palbociclib-based degrader; remark: listed apart in the source
# Target sequence in this assay (P40337 whole entry): as the sequence (P40337 whole entry) above
# Target sequence in this assay (Q00534 whole entry): as the sequence (Q00534 whole entry) above
# [5] = target: T1, CDK4; assay: IP-kinase assay
# Target sequence in this assay (P11802 2-303): as the sequence (P11802 2-303) above
structure (smiles),measurement,setting,value
CC(=O)c1c(C)c2cnc(Nc3ccc(N4CCN(CC5CCN(c6ccc7c(c6)C(=O)N(C6CCC(=O)NC6=O)C7=O)CC5)CC4)cn3)nc2n(C2CCCC2)c1=O (centres unmarked) [BSJ-03-096],palbociclib-based degrader; CDK4 degradation in MCF7 cells (immunoblot),[1],~ 10 nmol/L
same,palbociclib-based degrader; CDK6 degradation in MCF7 cells (immunoblot),[2],~ 10 nmol/L
CC(=O)c1c(C)c2cnc(Nc3ccc(N4CCN(CCCCC(=O)N[C@H](C(=O)N5C[C@H](O)C[C@H]5C(=O)N[C@@H](C)c5ccc(-c6scnc6C)cc5)C(C)(C)C)CC4)cn3)nc2n(C2CCCC2)c1=O [BSJ-05-017],palbociclib-based degrader; CDK4 degradation in MCF7 cells (immunoblot),[3],~ 10 nmol/L
same,palbociclib-based degrader; CDK6 degradation in MCF7 cells (immunoblot),[4],~ 10 nmol/L
CCN1CCN(Cc2ccc(Nc3ncc(F)c(-c4cc(F)c5nc(C)n(C(C)C)c5c4)n3)nc2)CC1 [abemaciclib],% reduced,[5],84 % reduced
